Experiment [1] concerns the target Lysine-specific histone demethylase 1A (Homo sapiens, UniProt O60341).
In experiment [2] the target is T1, Lysine-specific demethylase 4E (Homo sapiens, UniProt B2RXH2).
T1 sequence (B2RXH2 whole entry): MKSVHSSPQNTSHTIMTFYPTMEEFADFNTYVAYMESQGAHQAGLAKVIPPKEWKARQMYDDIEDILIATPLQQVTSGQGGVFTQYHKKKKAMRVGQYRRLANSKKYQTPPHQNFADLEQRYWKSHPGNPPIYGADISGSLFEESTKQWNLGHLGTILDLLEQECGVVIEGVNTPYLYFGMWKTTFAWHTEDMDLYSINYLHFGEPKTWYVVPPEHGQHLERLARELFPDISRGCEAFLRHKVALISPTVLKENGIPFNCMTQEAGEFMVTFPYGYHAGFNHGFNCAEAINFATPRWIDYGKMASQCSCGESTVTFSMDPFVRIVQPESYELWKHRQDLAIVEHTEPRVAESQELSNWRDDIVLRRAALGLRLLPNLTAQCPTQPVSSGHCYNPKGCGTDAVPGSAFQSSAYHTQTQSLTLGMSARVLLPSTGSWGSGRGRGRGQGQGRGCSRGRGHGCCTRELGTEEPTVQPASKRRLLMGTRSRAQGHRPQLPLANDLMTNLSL

Experiment [3] concerns the target T1, Lysine-specific demethylase 4E. The source holds these as a separate data set.
For the next experiment, the target named is Egl nine homolog 1 (Homo sapiens, UniProt Q9GZT9). Nature of the experiment: Inhibition of human PHD2.
For experiment [4], the target named is Hypoxia-inducible factor 1-alpha inhibitor (Homo sapiens, UniProt Q9NWT6). Nature of the experiment: Inhibition of asparaginyl hydroxylase factor-inhibiting-HIF.
Experiment [5] addresses T1, Lysine-specific demethylase 4E. The source holds these as a separate data set.
For experiment [6] the target is unchanged. The source holds these as a separate data set.
Experiment [7] has the same target. The source holds these as a separate data set.
For experiment [8] the target is unchanged. Nature of the experiment: Uncompetitive inhibition of JMJD2E relative to alpha-ketoglutarate.

Chain of Egl nine homolog 1 (Q9GZT9 whole entry): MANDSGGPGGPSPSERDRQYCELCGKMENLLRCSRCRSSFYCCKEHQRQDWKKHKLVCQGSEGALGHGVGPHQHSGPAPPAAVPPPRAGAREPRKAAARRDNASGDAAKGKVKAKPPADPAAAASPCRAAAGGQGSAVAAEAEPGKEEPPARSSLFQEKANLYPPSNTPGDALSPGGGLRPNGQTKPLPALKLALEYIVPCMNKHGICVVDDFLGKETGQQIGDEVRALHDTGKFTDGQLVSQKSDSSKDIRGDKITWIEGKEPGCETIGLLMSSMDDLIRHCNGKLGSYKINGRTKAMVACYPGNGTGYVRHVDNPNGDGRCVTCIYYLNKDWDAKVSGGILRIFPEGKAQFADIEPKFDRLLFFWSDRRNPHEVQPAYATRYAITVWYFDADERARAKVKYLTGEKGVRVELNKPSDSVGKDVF
Chain of Hypoxia-inducible factor 1-alpha inhibitor (Q9NWT6 whole entry): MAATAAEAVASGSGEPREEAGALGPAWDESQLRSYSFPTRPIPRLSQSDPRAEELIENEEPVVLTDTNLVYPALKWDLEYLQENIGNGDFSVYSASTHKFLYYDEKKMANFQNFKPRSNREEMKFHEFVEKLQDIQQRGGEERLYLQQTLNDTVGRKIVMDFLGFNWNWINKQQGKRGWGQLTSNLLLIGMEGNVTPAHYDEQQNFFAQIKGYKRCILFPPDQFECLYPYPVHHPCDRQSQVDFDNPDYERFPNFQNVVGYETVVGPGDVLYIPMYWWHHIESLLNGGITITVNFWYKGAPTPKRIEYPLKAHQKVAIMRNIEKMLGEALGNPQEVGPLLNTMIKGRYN

What is called IC50 is the concentration that inhibits the measured activity by half. Low readings indicate greater potency in that assay, high ones weaker potency in that assay. In turn, `CC(C)COc1ccc(Cl)cc1C1CC1N` (stereo not given) registered an IC50 in experiment [1] of 9 µM.

`O=C(O)C(=O)N[C@H](CSCc1ccccc1)C(=O)O`: inhibition in experiment [2] was half-maximal at 200 µM (IC50). The same measure, in the same setting: with `COc1ccccc1CSC[C@@H](NC(=O)C(=O)O)C(=O)O` the figure was 200 µM. `O=C(NO)c1cccc(O)c1`: the IC50 in experiment [3] is 4.8 µM. The term Ki denotes a measure of affinity in units of concentration, obtained from inhibition or displacement. As to `O=C(O)C(=O)N[C@H](CCc1ccccc1)C(=O)O`, the IC50 at Egl nine homolog 1 is over 1000 µM. In addition, the affinity in experiment [4] corresponds to a Ki of 83 µM. Regarding `CC(C)(C)c1ccc(S(=O)(=O)Oc2ccc(C[C@@H](NC(=O)C(=O)O)C(=O)O)cc2)cc1`, inhibition in [2] was half-maximal at 5 µM (IC50).

`O=C(O)C(=O)N[C@H](Cc1ccc(OS(=O)(=O)c2ccc(F)cc2)cc1)C(=O)O`: the IC50 in experiment [2] is 5 µM.

`O=C(O)C(=O)N[C@H](Cc1ccc(OS(=O)(=O)c2ccc(Br)cc2)cc1)C(=O)O` registered an IC50 in experiment [5] of 5.4 µM. With `O=c1cc(-c2ccccc2)oc2cc(O)c(O)c(O)c12` [BAICALEIN], in experiment [6], the affinity corresponds to a Ki of 4.33 µM. In experiment [7], this compound had an IC50 of 3 µM. On to `C[C@@](Cc1ccc(O)c(O)c1)(NN)C(=O)O` [CARBIDOPA], for which the Ki in experiment [8] turned out to be 1.98 µM. The compound `Oc1ccc(C2CNCCc3c2cc(O)c(O)c3Cl)cc1` (stereo not given) [FENOLDOPAM] displayed a Ki in [6] of 1.92 µM. This lies in the single-digit micromolar range. Turning to `CC1(C)CCC2=C(O1)c1ccccc1C(=O)C2=O` [LAPACHONE], the Ki in [6] turned out to be 3.55 µM. Moreover, inhibition in experiment [7] was half-maximal at 3 µM (IC50).

The record behind these values is ChEMBL document CHEMBL1795231, “Inhibitors of histone demethylases” (Bioorg Med Chem, 2011).
